In patent US11414379B2, “SPAK kinase inhibitors as neuroprotective agents” (United States Government as represented by the Department …, priority 2018, dated 2022):

Experiments:
humans = details: in vivo, 25 mg/kg; cited from earlier work
KCC2 pThr1007 = test: Phosphorylation immunoblot in KCC2-transfected HEK293 cells; assay type: cell-based, human; details: concentration inhibiting phosphorylation
Method: (§1) HEK293 (human embryonic kidney 293) cells were cultured on 10-cm-diameter dishes in DMEM supplemented with 10% (v/v) foetal bovine serum, 2 mM L-glutamine, 100 U/ml penicillin and 0.1 mg/ml streptomycin. HEK293 cells were transfected with a mixture of 20 μl of 1 mg/ml polyethylenimine (Polysciences) and 5-10 μg of plasmid DNA as described previously (Durocher et al., 2002). 36 hours post-transfection cells were stimulated with either control isotonic or hypotonic medium for a period of 30 minutes. Cells were lysed in 0.3 mL of ice-cold lysis buffer/dish, lysates were clarified by centrifugation at 4° C. for 15 minutes at 26,000 g and the supernatant aliquots were frozen in liquid nitrogen and stored at −20° C. Protein concentrations were determined using the Bradford method. Cells were treated with the indicated concentrations of the SPAK/OSR1 inhibitors. […] Hypotonic low chloride buffer was 67.5 mM sodium-gluconate, 2.5 mM potassium-gluconate, 0.25 mM CaCl2), 0.25 mM MgCl2, 0.5 mM Na2HPO4, 0.5 mM Na2SO4 and 7.5 mM HEPES (pH 7.5).
(§2) The membranes were incubated for 30 min with TBST (Tris-buffered saline, 0.05% Tween-20) containing 5% (w/v) skim milk. The blots were then washed six times with TBST and incubated for 1 hour at room temperature with secondary HRP-conjugated antibodies diluted 5000-fold in 5% (w/v) skim milk in TBST. After repeating the washing steps, signals were detected with enhanced chemiluminescence reagent. Immunoblots were developed using a film automatic processor (SRX-101; Konica Minolta Medical) and films were scanned at 600 dpi (PowerLook 1000; UMAX). Figures were generated using Photoshop/Illustrator (Adobe). The densities of bands were measured with ImageJ. For phospho-antibody immunoprecipitation, KCC isoforms were immunoprecipitated from indicated cell extracts. 2 mg of the indicated clarified cell extract were mixed with 15 μg of the indicated phospho-specific KCC antibody conjugated to 15 μl of protein-G-Sepharose, in the added presence of […] of the dephosphorylated form of the phosphopeptide antigen, and incubated 2 hours at 4° C. with gentle shaking. Immunoprecipitates were washed three times with 1 mL of lysis buffer containing 0.15 M NaCl and twice with 1 ml of buffer A. Bound proteins were eluted with 1×LDS sample buffer.
(§3) HEK293 cells were transfected with a DNA construct encoding wild type N-terminally FLAG-tagged KCC2. 36 hrs post-transfection, cells were exposed 30 min to either control isotonic or hypotonic low [C1^−] conditions, then treated in the same conditions for an additional 30 min with the indicated inhibitors at the concentrations noted. Cell lysates were subjected to SDS-PAGE and Western blotting with the indicated antibodies. See FIG. 3 for Western blot quantitation.
(§4) Referring to FIG. 2, concentration-response experiments testing effects of Closantel analogs on phosphorylation of KCC2 Thr906/Thr1007 are shown. HEK293 cells were transfected with DNA construct encoding wild type N-terminally FLAG-tagged KCC2. 36 h post-transfection, cells were exposed 30 min to either control isotonic conditions or hypotonic low Cl^− conditions, then treated in the same conditions with the specified inhibitors (1b, 1c, 1f, 1d, 1h, and 1g, respectively) at the indicated concentrations for an additional 30 min. Lysates were subjected to SDS-PAGE and Western blotting with the indicated antibodies.
(§5) Referring to FIG. 3, HEK293 cells were transfected with the DNA construct encoding wild type N-terminally FLAG-tagged KCC2. 36 h post-transfection, cells were exposed 30 min to either control isotonic or hypotonic low Cl^− conditions, then treated in the same conditions with the specified inhibitors at the indicated concen-trations for an additional 30 min. Lysates were subjected to SDS-PAGE and Western blotting with the indicated antibodies. Closantel, STOCK1S-14279 and STOCK1S-50699 were used as reference compounds.

KCC2 pThr906 = test: as above; assay type: cell-based, human; details: concentration inhibiting phosphorylation
Method: as §1, §2, §3, §4, §5

SPAK pSer373 = test: as above; assay type: cell-based, human; details: concentration inhibiting phosphorylation
Method: as §1, §2, §3, §4, §5

NKCC1 pThr203 = test: as above; assay type: cell-based, human
Method: as §1, §2, §3, §4, §5

pNKCC1 = test: IVH-induced phosphorylation in rat choroid plexus, ICV delivery; assay type: in vivo; details: 48 hrs post-IVH, n=3
[1] = system: mouse model of ischemic stroke; test: Neurological function tests after tMCAO; assay type: in vivo; details: 5.0 mg/kg
Method: The scores were: 0, no observable deficit; 1, forelimb flexion; 2, forelimb flexion and decreased resistance to lateral push; 3, forelimb flexion, decreased resistance to lateral push, and unilateral circling; 4, forelimb flexion and partial or complete lack of ambulation.
In brief, the corner test apparatus consists of two cardboards (30×20×1 cm each) placed together at a 30° angle to form a narrow alley. The mouse was placed between the two angled boards facing the corner. When exiting the corner, uninjured mice turned left or right randomly. […] The numbers of left and right turns of each mouse during 10 trials were recorded, and turning movements that were not part of a rearing movement were not scored. Preoperative training was carried twice per day for three days prior to operation. Postoperatively, animals were tested on day 1, 3, 5, and 7.
In brief, two small pieces of adhesive tape (4 mm×3 mm) were attached to the forepaws in an alternating sequence and with equal pressure by the experimenter before each trial. Animals were released into a testing cage, and the time of contact and removal of the adhesive patch were recorded. Contact was recorded when either shaking of the paw or mouth contact occurred. The trial ended after the adhesive patch was removed or after 2 min had elapsed. Preoperative training was carried twice per day for three days prior to operation. Postoperatively, animals were tested on day 1, 3, 5, and 7.
Referring to FIG. 13, neurological deficit scores, corner tests, and adhesive tape contact and adhesive tape removal tests of mice treated with vehicle or ZT-1a 1 day before tMCAO (˜1) and at days 0, 1, 3, 5, and 7 post-tMCAO are shown. Vehicle (DMSO, 2 ml/kg) or ZT-1a (5.0 mg/kg) were administered as described in B. Data are means±SEM, n=6 for each group (male 3, female 3). * p<0.05 vs. vehicle.

Structure (SMILES)	adverse effects in humans (humans)	KCC2 pThr1007 (μM) hypo (KCC2 pThr1007; hypotonic low Cl- conditions) [μM]	KCC2 pThr1007 (μM) Iso (KCC2 pThr1007; isotonic conditions) [μM]	KCC2 pThr906 (μM) hypo (KCC2 pThr906; hypotonic low Cl- conditions)	KCC2 pThr906 (μM) Iso (KCC2 pThr906; isotonic conditions)	SPAK pSer373 (μM) hypo (SPAK pSer373; hypotonic low Cl- conditions) [μM]	SPAK pSer373 (μM) Iso (SPAK pSer373; isotonic conditions) [μM]	inhibition at 1 µM (NKCC1 pThr203; Homo sapiens, read-out: inhibition of NKCC1 p-Thr203/207/212, up to, at 1 μM, n=4) [%]	NKCC1 pThr203 (μM) hypo (NKCC1 pThr203; hypotonic low Cl- conditions, concentration inhibiting phosphorylation)	NKCC1 pThr203 (μM) Iso (NKCC1 pThr203; isotonic conditions, concentration inhibiting phosphorylation)	reduction of IVH-induced expression of pNKCC1 (pNKCC1) [%]	corner test ([1]; days 1-7 post-stroke)	adhesive removal test ([1]; vs vehicle, p<0.05)	adhesive contact test ([1]; vs vehicle, p=0.10)
Cc1cc(C(C#N)c2ccc(Cl)cc2)c(Cl)cc1NC(=O)c1cc(I)cc(I)c1O (centres unmarked) [Closantel]	weakness, visual impairment and blindness													
Cc1cc(C(C#N)c2ccc(Cl)cc2)c(Cl)cc1NC(=O)c1cc(Cl)ccc1O (centres unmarked) [ZT-1a, 5-chloro-N-(5-chloro-4-((4-chlorophenyl)(cyano)methyl)-2-methylphenyl)-2-hydroxy-benzamide]		3	1	3, 3 μM	3, 3 μM	3	1	≤ 72	1, 1 μM	1, 1 μM	69±4.3	reduced unidirectional turn preference and absence of asymmetries by day 7 post-stroke	significantly improved motor function	trend to faster contact response
